Key:
T. cruzi [1] = assay: 2D-GE plasma proteome profile of T. cruzi infected rats treated with PBN and/or BZ; assay type: in vivo, Sprague Dawley rats
Procedure: (§1) Animals and parasites. Sprague Dawley rats (4-5-weeks-old, Harlan Labs) were infected with T. cruzi (SylvioX10/4, 50,000 trypomastigotes/rat, intraperitoneal). Rats were given 1.3 mM PBN (beginning day 0, throughout the course of infection) and/or 0.7 mM BZ (beginning day 40 pi, for three weeks) in drinking water. The plasma samples were obtained at acute ([…] days post-infection (dpi)) and chronic (>150 dpi) stages of infection and disease development.
(§2) Rat plasma collection and removal of high-abundance proteins. Whole blood was collected in K3EDTA vacutainers and kept on ice for 30 min. The samples were centrifuged for 15 min at 3,000 g, and the lipid-containing upper layer was removed. The abundant proteins (e.g., albumin, α1-acid glycoprotein, α1-antitrypsin, α2-5 macroglobulin, apolipoproteins (ApoA-I, ApoA-II), fibrinogen, haptoglobin, immunoglobulins (IgA, IgG, and IgM), and transferrin) in plasma were removed using ProteomeLab IgY-12 LC 10 affinity spin columns (Beckman Coulter). The plasma samples depleted of abundant proteins were then concentrated by using Amicon® ultra centrifugal filters (3 kDa cut-off, from Millipore) and desalted by PD-10 desalting columns (GE Healthcare). Protein content was determined by using the Bradford assay (Bio-Rad).
(§3) Two-dimensional gel electrophoresis. The 11-cm immobilized pH gradient (IPG) strips (pH: 3-10 or 5-8, Bio-Rad) were rehydrated at 50 V for 12 h with 250-μl rehydration buffer (1 M thiourea, 8 M urea, 2% CHAPS, 1% dithiothreitol, and 0.2% ampholytes) containing 200-μg protein samples and 0.002% of bromophenol blue. Isoelectric focusing was performed at 500 V for 1 h, 1000 V for 1 h, 8000 V for 2 h, and then at 8000 V for a total of 50,000 Vh. The IPG strips were suspended in equilibration buffer (50 mM Tris-HCI, pH 6.8, 6 M urea, 20% glycerol) and sequentially incubated for 15 min each in presence of 2% DTT/2% SDS (reducing conditions) and 2.5% iodoacetamide/2% SDS (alkylating conditions). Equilibrated IPG strips were subjected to second-dimension electrophoresis by using 8-10% linear gradient precast Tris-HCI gels (BioRad) on a PROTEAN plus Dodeca Cell System at 75 V for 1 h and then at 120 V until the dye front reached the bottom of the gel. Gels were fixed in 10% methanol/7% acetic acid, stained with SYPRO Ruby (BioRad), destained in 10% ethanol/7% acetic acid, and imaged by using a high-resolution ProXPRESS Proteomic Imaging System (Perkin Elmer).
(§4) Image analysis. In total, 28 SYPRO Ruby-stained 2D gels (n=4/group) were digitalized on a ProXPRESS Proteomic Imaging System (Perkin Elmer), and the images were analyzed on Progenesis SameSpots™ software 2.0 (NonLinear Dynamics). Normalized spot volumes, i.e., the volume of each spot over the volume of all spots in the gel, were used for comparison of the different groups, and candidates were identified as protein spots that changed at least 2-fold versus their specific control. Statistical significance was assessed by a two-tailed Student's t-test and analysis of variance test (ANOVA), and p values of <0.05 were considered significant for comparison between control and experimental data.
(§5) Sprague Dawley rats were infected with T. cruzi and treated with phenyl-α-tert-butyl nitrone (PBN, antioxidant) with or without benznidazole (BZ, anti-parasite drug). Plasma samples were collected at day 25 (acute stage) and 150 (chronic stage) post-infection, and depleted of high-abundance proteins to enrich detection of low-abundance proteins by 2D-gel electrophoresis. Gel images of plasma samples from normal rats (RN), rats that were acutely infected (RA) and treated with PBN (RAP), and chronically infected rats (RC) that were treated with PBN (RCP), BZ (RCB), or PBN and BZ (RCPB) were analyzed on Progenesis SameSpotst™ software and normalized spot volumes were used for comparison of different groups.

[2] = as above; assay type: in vivo, Sprague Dawley rats; details: chronically infected rats (RCP, RCB, RCPB), depleted plasma
Procedure: as §1, §2, §3, §4, §5

T. cruzi [3] = assay: Detection of carbonyl proteins (DNPH, anti-DNP Western blotting) in plasma of T. cruzi infected rats; assay type: in vivo, Sprague Dawley rats
Procedure: as §1
Detection of carbonyl proteins. IPG strips were loaded with protein samples and subjected to 1st-dimension isoelectric focusing, as above. IPG strips were then incubated with 1 ml of 3% SDS and 5 mM 2,4-dinitrophenylhydrazine (DNPH)/10% trifluoroacetic acid for 25 min. […] Membranes were hybridized with rabbit anti-DNP antibody (1:300 dilution, Invitrogen) and HRP-conjugated goat anti-rabbit secondary antibody (1:4000 dilution, Sigma), and signal detected by using an Amersham™ ECL Plus system, according to the manufacturer's protocol (Levine et al., (1990) Methods Enzymol, 186, 464-78; Wen and Garg, (2004) Free Radic Biol Med, 37, 2072-81). Images were visualized, digitized, and signal was quantified by densitometry by using a FluorChem 8800 image analyzer (Alpha Innotech). […]

Trypanosoma cruzi = details: cited from earlier work
[4] = chronically infected rats (RCP, RCB, RCPB), depleted plasma

## O=C(Cn1ccnc1[N+](=O)[O-])NCc1ccccc1 [BZ, Benznidazole]
T. cruzi [1]; chronic chagasic plasma
  number of proteins stimulated in a treatment-specific manner: 2
T. cruzi [1]; chronic chagasic plasma, 22 of the 61 shared with BZ-treated rats
  number of proteins with altered expression: 22
T. cruzi [1]; chronically infected rats
  decline in the plasma proteome profile: 30.1%
T. cruzi [1]; [4]
  Average Normalized Density × 100,000, spot 12, 180 KRT1: 9.47
  Average Normalized Density × 100,000, spot 34 TTC37: 0.37
  Average Normalized Density × 100,000, spot 37, 593 SRPRB: 3.21
  Average Normalized Density × 100,000, spot 49, 673 IGH-1: 3.98
  Average Normalized Density × 100,000, spot 52, 54, 302 TF: 0.60
  Average Normalized Density × 100,000, spot 53, 225 SroTP: 1.72
  Average Normalized Density × 100,000, spot 72 IDH3A: 83.09
  Average Normalized Density × 100,000, spot 73, 705, 787 ALB: 216.9
  Average Normalized Density × 100,000, spot 77 MUG1: 107.7
  Average Normalized Density × 100,000, spot 88 IGHG-: 4.75
  Average Normalized Density × 100,000, spot 94 FGB: 0.55
  Average Normalized Density × 100,000, spot 115, 123 SERPINAL1: 8.36
  Average Normalized Density × 100,000, spot 149 PUS1: 1.16
  Average Normalized Density × 100,000, spot 153 MYL2: 2.37
  Average Normalized Density × 100,000, spot 177 AIM: 2.77
  Average Normalized Density × 100,000, spot 181 SERPINA3L: 7.53
  Average Normalized Density × 100,000, spot 184, 257, 328 CFH: 6.15
  Average Normalized Density × 100,000, spot 207, 555 CCHL1A1: 11.32
  Average Normalized Density × 100,000, spot 215 GPT: 3.23
  Average Normalized Density × 100,000, spot 266 CEP350: 1.43
  Average Normalized Density × 100,000, spot 299 UMPS: 1.17
  Average Normalized Density × 100,000, spot 315 ITIH4: 5.19
  Average Normalized Density × 100,000, spot 334 ZNF689: 1.05
  Average Normalized Density × 100,000, spot 341 Nmag 2782: 1.44
  Average Normalized Density × 100,000, spot 355, 359 PLG: 3.29
  Average Normalized Density × 100,000, spot 382, 385, 378, 572, 578, 595 CFB: 23.45
  Average Normalized Density × 100,000, spot 389 GSN: 44.17
  Average Normalized Density × 100,000, spot 430 SCD2: 13.65
  Average Normalized Density × 100,000, spot 434, 678 COG1: 43.20
  Average Normalized Density × 100,000, spot 439 C4BPA: 1.36
  Average Normalized Density × 100,000, spot 452 AFM: 59.65
  Average Normalized Density × 100,000, spot 464 IGH-6: 4.66
  Average Normalized Density × 100,000, spot 479 IGHM: 8.65
  Average Normalized Density × 100,000, spot 493 ZFP637: 17.41
  Average Normalized Density × 100,000, spot 515 CESIC/ES2: 24.22
  Average Normalized Density × 100,000, spot 524 ERCC4: 68.54
  Average Normalized Density × 100,000, spot 551, 587, 908 C3: 32.88
  Average Normalized Density × 100,000, spot 559 HPX: 17.91
  Average Normalized Density × 100,000, spot 571 GC: 3.75
  Average Normalized Density × 100,000, spot 576, 620 Act-248: 2.38
  Average Normalized Density × 100,000, spot 586, 614 SERPINC1: 132.20
  Average Normalized Density × 100,000, spot 592 DNASE1L1: 11.70
  Average Normalized Density × 100,000, spot 604 APOH: 67.12
  Average Normalized Density × 100,000, spot 606 GC: 11.27
  Average Normalized Density × 100,000, spot 627 MAPI: 44.92
  Average Normalized Density × 100,000, spot 638 LOC501738: 4.69
  Average Normalized Density × 100,000, spot 649 SYNE2: 26.48
  Average Normalized Density × 100,000, spot 651 DSTN: 37.12
  Average Normalized Density × 100,000, spot 655 DLGAP2: 151.30
  Average Normalized Density × 100,000, spot 672 SERPINF: 23.29
  Average Normalized Density × 100,000, spot 676 rCG33447: 24.67
  Average Normalized Density × 100,000, spot 691 APOA4: 65.41
  Average Normalized Density × 100,000, spot 715 SERPINA1: 30.96
  Average Normalized Density × 100,000, spot 724 ALB: 2.19
  Average Normalized Density × 100,000, spot 728 SYMPK: 2.21
  Average Normalized Density × 100,000, spot 733 DECR2: 1.67
  Average Normalized Density × 100,000, spot 740 PRPH: 4.02
  Average Normalized Density × 100,000, spot 745 PFKFB1: 2.30
  Average Normalized Density × 100,000, spot 749 MY05B: 2.46
  Average Normalized Density × 100,000, spot 766 SCG2: 3.79
  Average Normalized Density × 100,000, spot 779, 909 VIM: 3.08
  Average Normalized Density × 100,000, spot 796 Hypothetical p: 5.11
  Average Normalized Density × 100,000, spot 814 RBM15B: 3.61
  Average Normalized Density × 100,000, spot 817 BRPF1: 25.15
  Average Normalized Density × 100,000, spot 820, 1081 BFAR: 13.38
  Average Normalized Density × 100,000, spot 827 GNAT: 10.78
  Average Normalized Density × 100,000, spot 832 PSMB: 3.47
  Average Normalized Density × 100,000, spot 860 KRT10: 2.64
  Average Normalized Density × 100,000, spot 867 RAI14: 2.41
  Average Normalized Density × 100,000, spot 881 CHD4: 28.89
  Average Normalized Density × 100,000, spot 897 MY05A: 11.65
  Average Normalized Density × 100,000, spot 900 rCG25416: 7.06
  Average Normalized Density × 100,000, spot 906 APOE: 74.42
  Average Normalized Density × 100,000, spot 966 CMRF-35-like molecule-7: 49.99
  Average Normalized Density × 100,000, spot 979 rCG25357: 31.72
  Average Normalized Density × 100,000, spot 992 APOA1: 38.11
  protein spots observed (2D-GE): 2486
T. cruzi [1]; share of differentially expressed protein spots, FIG. 7B
  differentially expressed proteins identified in chagasic plasma of treated rats: 17%
[2]
  Average Normalized Density × 100,000, spot 106 CDK5RAP2: 2.21
T. cruzi [3]; chronic chagasic plasma
  protein carbonylation: not effective in preventing protein carbonylation
T. cruzi [3]; chronically infected rats (RCP, RCB, RCPB), plasma
  carbonylated protein spots: 31
Trypanosoma cruzi; acutely infected individuals
  controlling parasitemia: effective
Trypanosoma cruzi; chronically infected patients
  efficacy in arresting or reversing disease progression: not clearly established

Source: patent US20120316211A1, “Diagnostic Methods for Assessing Risk of Chagas Disease and Heart Failure” (The Board or Regents of the University of Texas System, priority 2011, published 2012)
